Broadly, the mass density is the mass of a sample divided by its volume. For orientation: viscosity means the internal friction of a fluid under shear.

Structures are written as SMILES. Numbers after ± are expanded uncertainties.

Our source for the mass density and viscosity values is the NIST ThermoML archive (doi:10.1021/je049576k).

For the data set the following is noted: 101.33 kPa, Liquid.

As to `CCC(C)O` (configuration not stated) [butan-2-ol], under “298.15 K”, the mass density was 802.2 ± 0.6 kg/m3 and the viscosity is on record as 3.043 ± 0.037 mPa·s. Moreover, for the setting “313.15 K”, the mass density came to 789.59 ± 0.61 kg/m3 and the viscosity stood at 1.791 ± 0.023 mPa·s.

In the case of `C1COCO1` [1,3-dioxolane], the mass density by setting is: (298.15 K) 1058.62 ± 0.58 kg/m3; (313.15 K) 1039.97 ± 0.56 kg/m3. Besides, the viscosity (298.15 K) stood at 0.5886 ± 0.0084 mPa·s and the viscosity (313.15 K) came to 0.4985 ± 0.0074 mPa·s.

Turning to `CCCCCC` [hexane], the mass density reads like this: (298.15 K) 655.07 ± 0.75 kg/m3; (313.15 K) 641.27 ± 0.77 kg/m3. The viscosity reads like this: (298.15 K) 0.2951 ± 0.005 mPa·s; (313.15 K) 0.2552 ± 0.0045 mPa·s.
